# Experimental data from ChEMBL document CHEMBL1201862, “PubChem BioAssay data set” (2004).
# Active and inactive are the calls of the source.
# Legend:
# Insulin-degrading enzyme [1] = target: T1, Insulin-degrading enzyme (Homo sapiens, UniProt P14735); assay: recombinant IDE activation, cell-free – biochemical, fluorescence polarization, counter-screen for IDE activator project, dose response (AID 588681)
# T1 sequence (P14735 whole entry): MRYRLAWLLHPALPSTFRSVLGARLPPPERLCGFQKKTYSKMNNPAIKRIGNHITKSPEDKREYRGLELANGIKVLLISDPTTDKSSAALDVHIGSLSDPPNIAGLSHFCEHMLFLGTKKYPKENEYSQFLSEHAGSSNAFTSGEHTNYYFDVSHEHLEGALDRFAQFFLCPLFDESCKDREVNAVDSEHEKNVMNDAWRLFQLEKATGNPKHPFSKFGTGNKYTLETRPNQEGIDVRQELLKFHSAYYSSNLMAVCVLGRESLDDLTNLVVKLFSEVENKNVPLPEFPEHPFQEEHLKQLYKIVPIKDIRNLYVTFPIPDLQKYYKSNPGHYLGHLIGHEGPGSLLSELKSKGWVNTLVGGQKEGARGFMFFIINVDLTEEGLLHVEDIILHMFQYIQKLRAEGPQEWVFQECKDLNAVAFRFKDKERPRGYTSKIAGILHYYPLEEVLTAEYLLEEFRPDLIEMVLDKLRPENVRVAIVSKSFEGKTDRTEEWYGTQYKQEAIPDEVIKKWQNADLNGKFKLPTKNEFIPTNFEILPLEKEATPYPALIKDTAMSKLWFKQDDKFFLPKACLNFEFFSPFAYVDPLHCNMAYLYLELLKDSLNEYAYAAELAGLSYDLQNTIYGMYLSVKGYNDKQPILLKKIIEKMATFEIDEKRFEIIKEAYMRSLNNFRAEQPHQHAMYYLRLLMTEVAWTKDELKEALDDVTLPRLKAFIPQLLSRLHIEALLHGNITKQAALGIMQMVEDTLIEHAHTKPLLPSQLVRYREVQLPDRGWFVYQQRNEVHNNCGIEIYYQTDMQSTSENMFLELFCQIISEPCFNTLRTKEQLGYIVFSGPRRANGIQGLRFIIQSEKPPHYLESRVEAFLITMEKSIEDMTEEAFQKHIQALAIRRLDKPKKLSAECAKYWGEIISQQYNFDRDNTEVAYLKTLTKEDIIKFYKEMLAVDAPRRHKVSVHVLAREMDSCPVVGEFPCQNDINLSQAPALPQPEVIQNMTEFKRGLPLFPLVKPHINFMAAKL
# HEK293 [2] = assay: optical interference in Abeta FP readout, dose response, artefact control for IDE activator project, biochemical, fluorescence polarization (AID 588442); type: functional, cell-based; conditions: Homo sapiens
# Insulin-degrading enzyme [3] = target: T1, Insulin-degrading enzyme; assay: cellular IDE activation of Abeta substrate cleavage – fluorescence polarization, HEK cells, dose response (AID 588439); type: functional, cell-based
# HEK293 [4] = assay: membrane integrity loss in HEK cells – cell-based, fluorescence, cytotoxicity control for IDE activator project, dose response (AID 588440); type: functional; conditions: Homo sapiens;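 further: cytotoxicity by LDH release measuring loss of membrane integrity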
# CHO-K1 = assay: (§1) Counterscreen for antagonists of the orexin 1 receptor (OX1R; HCRTR1): Homogeneous time resolved fluorescence (HTRF)-based cell-based dose response assay to identify antagonists of the parental CHO-K1 cell line. [Related pubchem assays (depositor defined):AID434989, AID435008, AID463079, AID485270, AID492963, AID492964, AID492965, AID493232, AID504699, AID504701]; type: functional; conditions: Cricetulus griseus
# Orexin receptor type 2 [5] = target: T2, Orexin receptor type 2 (Homo sapiens, UniProt O43614); assay: Counterscreen assay for antagonists of the orexin 1 receptor (OX1R; HCRTR1): Homogeneous Time Resolved Fluorescence (HTRF)-based cell-based dose response assay for antagonists of the orexin 2 receptor (OX2R; HCRTR2), run by assay provider.; type: functional
# [6] = target: T3, Orexin/Hypocretin receptor type 1 (Homo sapiens, UniProt O43613); assay: (§2) Fluorescence-based cell-based high throughput dose response assay for antagonists of the orexin 1 receptor (OX1R; HCRTR1). [Related pubchem assays (depositor defined):AID434989, AID435008, AID463079, AID485270, AID492963, AID492964, AID492965, AID493232, AID504717, AID504718]; type: functional
# T3 sequence (O43613 whole entry): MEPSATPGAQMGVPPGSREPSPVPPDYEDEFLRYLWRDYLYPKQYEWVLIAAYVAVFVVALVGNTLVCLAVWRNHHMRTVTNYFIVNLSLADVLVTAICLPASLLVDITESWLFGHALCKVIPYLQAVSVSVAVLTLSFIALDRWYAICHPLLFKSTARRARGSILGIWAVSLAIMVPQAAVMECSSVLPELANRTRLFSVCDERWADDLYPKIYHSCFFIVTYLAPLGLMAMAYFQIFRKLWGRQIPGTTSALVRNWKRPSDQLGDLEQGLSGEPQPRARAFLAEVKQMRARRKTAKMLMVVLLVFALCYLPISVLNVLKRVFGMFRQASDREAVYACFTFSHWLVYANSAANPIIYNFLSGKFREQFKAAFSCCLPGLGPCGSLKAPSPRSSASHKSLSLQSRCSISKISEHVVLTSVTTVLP
# [7] = target: T3, Orexin/Hypocretin receptor type 1; assay: as §2, with “Homogeneous Time Resolved Fluorescence (HTRF)-based” for “Fluorescence-based”; type: functional
# [8] = Luminescence Cell-Based Dose Confirmation to Identify Activators of 5'UTR Stem-Loop Driven Alpha-Synuclein mRNA Translation in H4 Neuroglioblastoma Cells. [Related pubchem assays: 1829 (Project Summary), 1814 (Primary HTS)]; type: functional
# Orexin receptor type 2 [9] = target: T2, Orexin receptor type 2; assay: Counterscreen assay for antagonists of the orexin 1 receptor (OX1R; HCRTR1): Fluorescence-based cell-based dose response assay for antagonists of the orexin 2 receptor (OX2R; HCRTR2), run by assay provider.; type: functional
# [10] = Luminescence Cell-Based Dose Response to Identify Activators of Luciferase Translation or Activity in H4-C Neuroglioblastoma Cells. [Related pubchem assays: 1829 (Project Summary), 1814 (Primary HTS)]; type: functional
# H4 = assay: Luminescence Cell-Based Dose Response HTS to Identify Activators of 5'UTR Stem-Loop Driven Prion Protein mRNA Translation in H4 Neuroglioblastoma Cells. [Related pubchem assays: 1829 (Project Summary), 1814 (Primary HTS)]; type: functional; conditions: Homo sapiens
# [11] = as §1, with “Fluorescence-based” for “Homogeneous time resolved fluorescence (HTRF)-based”, “cell-based high throughput” for “cell-based”, “CHO” for “CHO-K1”; type: functional
# [12] = Luminescence Cell-Based Dose Response HTS to Identify Activators of Luciferase Translation or Activity in H4 […] Cells. [Related pubchem assays: 1829 (Project Summary), 1814 (Primary HTS)]; type: functional
# [13] = Luminescence Cell-Based Dose Response to Identify Activators of 5'UTR Stem-Loop Driven Prion Protein mRNA Translation in H4-C Neuroglioblastoma Cells. [Related pubchem assays: 1829 (Project Summary), 1814 (Primary HTS)]; type: functional
# [14] = THP-1 cell cytotoxicity, cytotoxicity control, set 6 (AID 602433); type: functional; conditions: Mycobacterium tuberculosis
# [15] = target: ATP-binding cassette sub-family B member 6 (Homo sapiens, UniProt Q9NP58); assay: concentration-dependent ABCB6 porphyrin transport blockade – K562-ABCB6 cells, flow cytometry, cherry pick 1, dose response (AID 623955); type: functional; conditions: read-out: EC50_MICROM
# [16] = target: T4, Replicative DNA helicase DnaB (Mycobacterium tuberculosis, UniProt P9WMR3); assay: DnaB intein splicing inhibitors, dose response, biochemical, cell-free fluorescence (AID 449749); type: functional
# T4 sequence (P9WMR3 whole entry): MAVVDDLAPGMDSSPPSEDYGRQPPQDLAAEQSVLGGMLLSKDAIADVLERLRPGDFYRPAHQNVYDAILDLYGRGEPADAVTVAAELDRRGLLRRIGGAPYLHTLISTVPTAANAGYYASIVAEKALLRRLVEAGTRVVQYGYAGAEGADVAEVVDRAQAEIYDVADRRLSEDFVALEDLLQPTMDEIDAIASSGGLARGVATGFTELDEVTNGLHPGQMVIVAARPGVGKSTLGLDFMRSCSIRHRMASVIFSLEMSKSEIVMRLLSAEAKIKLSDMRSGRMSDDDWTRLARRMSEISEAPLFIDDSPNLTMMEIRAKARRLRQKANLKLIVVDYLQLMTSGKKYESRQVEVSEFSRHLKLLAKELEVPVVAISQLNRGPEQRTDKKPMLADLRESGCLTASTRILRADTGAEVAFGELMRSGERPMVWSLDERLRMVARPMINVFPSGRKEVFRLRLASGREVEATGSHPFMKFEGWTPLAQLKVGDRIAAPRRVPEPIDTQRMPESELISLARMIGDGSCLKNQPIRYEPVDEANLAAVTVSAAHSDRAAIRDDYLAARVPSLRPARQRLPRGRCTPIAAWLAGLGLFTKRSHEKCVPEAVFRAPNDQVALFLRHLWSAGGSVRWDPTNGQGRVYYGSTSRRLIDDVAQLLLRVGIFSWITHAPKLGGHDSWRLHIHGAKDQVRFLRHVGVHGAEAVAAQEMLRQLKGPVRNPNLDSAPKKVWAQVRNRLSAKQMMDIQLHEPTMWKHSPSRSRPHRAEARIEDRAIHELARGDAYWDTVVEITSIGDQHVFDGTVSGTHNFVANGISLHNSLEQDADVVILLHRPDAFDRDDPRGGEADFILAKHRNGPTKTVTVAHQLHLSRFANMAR
# [17] = target: NACHT, LRR and PYD domains-containing protein 3 (Homo sapiens, UniProt Q96P20); assay: NALP3 inhibitors in yeast, dose response, luminescent (AID 488799); type: functional
# CHO = CHO cell viability loss, potency – luminescence, cytotoxicity control for TLR9-MyD88 binding inhibitor project, dose response (AID 588339); type: functional, cell-based, hamster; conditions: Cricetulus griseus;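 further: CHO cells stably coexpressing TLR9 and MyD88 fusions from primary screen; compound exposure lasted 48 hours before viability readout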
# [18] = non-specific 3'UTR reporter inhibition in Clone20-Shn3RL – cell-based, Renilla luciferase, cherry-picked, counter-screen for Shn3 inhibitor project, dose response (AID 624133); type: functional
# [19] = reduction of Shn3 3'UTR-driven luciferase in osteoblasts – cell-based, Clone20 osteoblasts, firefly luciferase, cherry-picked, dose response (AID 624132); type: functional;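 further: firefly luciferase luminescence from reporter carrying the Shn3 3'UTR in osteoblasts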
# [20] = loss of viability in HepG2 cells – cell-based, CellTiter-Glo, cherry-picked, cytotoxicity control for Shn3 inhibitor project, dose response (AID 624134); type: functional
# Protein RecA = target: T5, Protein RecA (Mycobacterium tuberculosis, UniProt P9WHJ3); assay: Fluorescence Cell-Free Homogeneous Dose Retest to Identify Inhibitors of RecA-Intein Splicing Activity. [Related pubchem assays (depositor defined):AID2097, AID2223, AID489010, AID492950]; type: functional
# T5 sequence (P9WHJ3 whole entry): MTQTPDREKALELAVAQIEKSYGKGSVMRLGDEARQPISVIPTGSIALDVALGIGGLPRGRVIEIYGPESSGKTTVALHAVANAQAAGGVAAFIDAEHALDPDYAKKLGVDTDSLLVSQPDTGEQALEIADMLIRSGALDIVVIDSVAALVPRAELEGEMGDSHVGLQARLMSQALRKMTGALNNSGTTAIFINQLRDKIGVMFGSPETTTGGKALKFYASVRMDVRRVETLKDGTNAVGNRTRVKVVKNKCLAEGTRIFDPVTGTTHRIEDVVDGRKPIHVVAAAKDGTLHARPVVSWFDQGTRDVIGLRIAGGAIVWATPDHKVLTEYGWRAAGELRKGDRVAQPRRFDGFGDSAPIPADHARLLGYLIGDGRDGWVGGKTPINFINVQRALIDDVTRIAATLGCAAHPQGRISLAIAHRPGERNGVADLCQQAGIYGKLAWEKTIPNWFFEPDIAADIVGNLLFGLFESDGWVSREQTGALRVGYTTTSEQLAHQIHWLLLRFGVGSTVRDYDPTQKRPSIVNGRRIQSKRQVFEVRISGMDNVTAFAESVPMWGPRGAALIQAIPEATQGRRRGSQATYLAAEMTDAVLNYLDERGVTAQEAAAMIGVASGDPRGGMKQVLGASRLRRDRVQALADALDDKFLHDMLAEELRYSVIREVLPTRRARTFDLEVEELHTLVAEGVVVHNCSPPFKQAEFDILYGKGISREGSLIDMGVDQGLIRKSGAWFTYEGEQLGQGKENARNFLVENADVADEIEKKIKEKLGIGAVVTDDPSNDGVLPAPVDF
# [21] = target: Heat shock protein HSP 90-alpha (Homo sapiens, UniProt P07900); type: functional, organism-based
# Beta Lactamase = Beta Lactamase (Pseudomonas aeruginosa, UniProt Q932Y6); assay: BLA reporter interference, concentration series – BLA reporter cells, FRET fluorescence, artefact control for TLR9-MyD88 binding inhibitor project, dose response (AID 588341); type: cell-based;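 further: cell based assay in CHO-K1 cells stably expressing beta-lactamase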
# [22] = Luminescence Cell-Based Dose Retest to Confirm Inhibitors of Cancer Stem Cells. [Related pubchem assays (depositor defined):AID2717, AID2721]; type: functional; conditions: Homo sapiens
# INS1 = assay: INS-1E survival protection against cytokine death – cell-based, luminescence, retest, dose response (AID 449756); type: functional; conditions: Rattus norvegicus;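 further: cell death triggered by IL-1 beta plus TNF-alpha plus IFN-gamma mixture; protective hits raise ATP signal compared with cytokine alone wells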
# T2 sequence (O43614 whole entry): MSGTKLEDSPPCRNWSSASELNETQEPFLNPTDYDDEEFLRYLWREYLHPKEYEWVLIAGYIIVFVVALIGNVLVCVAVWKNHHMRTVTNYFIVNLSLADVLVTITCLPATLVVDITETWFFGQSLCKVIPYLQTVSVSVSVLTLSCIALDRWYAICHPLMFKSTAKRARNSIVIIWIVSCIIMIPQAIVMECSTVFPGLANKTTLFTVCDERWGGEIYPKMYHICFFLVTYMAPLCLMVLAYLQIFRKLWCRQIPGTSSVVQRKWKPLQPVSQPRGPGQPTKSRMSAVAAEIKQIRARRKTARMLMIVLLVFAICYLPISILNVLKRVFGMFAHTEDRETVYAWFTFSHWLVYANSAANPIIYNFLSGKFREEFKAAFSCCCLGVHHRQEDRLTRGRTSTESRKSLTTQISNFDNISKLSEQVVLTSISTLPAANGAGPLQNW
# Chain of NACHT, LRR and PYD domains-containing protein 3 (Q96P20 whole entry, the tested form may be a part): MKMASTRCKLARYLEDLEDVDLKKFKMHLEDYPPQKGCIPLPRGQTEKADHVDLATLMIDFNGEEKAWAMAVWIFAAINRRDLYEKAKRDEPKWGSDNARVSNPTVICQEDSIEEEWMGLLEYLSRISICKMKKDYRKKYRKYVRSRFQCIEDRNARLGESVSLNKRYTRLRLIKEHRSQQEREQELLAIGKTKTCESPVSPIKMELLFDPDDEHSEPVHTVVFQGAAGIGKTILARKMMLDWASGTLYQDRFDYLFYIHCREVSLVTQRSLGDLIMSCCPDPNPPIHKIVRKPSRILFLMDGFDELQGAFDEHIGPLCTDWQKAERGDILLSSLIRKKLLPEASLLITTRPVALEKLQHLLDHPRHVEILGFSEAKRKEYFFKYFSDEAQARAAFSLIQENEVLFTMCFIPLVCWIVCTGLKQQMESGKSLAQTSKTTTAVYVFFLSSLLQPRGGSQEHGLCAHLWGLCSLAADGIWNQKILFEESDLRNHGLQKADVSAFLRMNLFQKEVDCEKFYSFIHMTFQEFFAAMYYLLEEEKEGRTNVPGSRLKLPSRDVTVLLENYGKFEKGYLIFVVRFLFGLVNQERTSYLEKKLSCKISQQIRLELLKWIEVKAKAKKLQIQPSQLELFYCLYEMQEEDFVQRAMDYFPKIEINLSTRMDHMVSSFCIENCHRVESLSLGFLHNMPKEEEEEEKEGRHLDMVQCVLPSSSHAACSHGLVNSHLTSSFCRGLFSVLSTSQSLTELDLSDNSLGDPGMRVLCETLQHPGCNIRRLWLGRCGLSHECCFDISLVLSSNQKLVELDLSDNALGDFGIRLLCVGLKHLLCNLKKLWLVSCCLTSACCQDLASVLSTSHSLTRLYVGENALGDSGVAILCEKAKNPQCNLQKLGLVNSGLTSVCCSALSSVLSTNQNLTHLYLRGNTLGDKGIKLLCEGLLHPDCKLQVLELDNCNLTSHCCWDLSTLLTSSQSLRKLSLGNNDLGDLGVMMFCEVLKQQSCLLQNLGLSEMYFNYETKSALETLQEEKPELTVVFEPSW
# Chain of ATP-binding cassette sub-family B member 6 (Q9NP58 whole entry): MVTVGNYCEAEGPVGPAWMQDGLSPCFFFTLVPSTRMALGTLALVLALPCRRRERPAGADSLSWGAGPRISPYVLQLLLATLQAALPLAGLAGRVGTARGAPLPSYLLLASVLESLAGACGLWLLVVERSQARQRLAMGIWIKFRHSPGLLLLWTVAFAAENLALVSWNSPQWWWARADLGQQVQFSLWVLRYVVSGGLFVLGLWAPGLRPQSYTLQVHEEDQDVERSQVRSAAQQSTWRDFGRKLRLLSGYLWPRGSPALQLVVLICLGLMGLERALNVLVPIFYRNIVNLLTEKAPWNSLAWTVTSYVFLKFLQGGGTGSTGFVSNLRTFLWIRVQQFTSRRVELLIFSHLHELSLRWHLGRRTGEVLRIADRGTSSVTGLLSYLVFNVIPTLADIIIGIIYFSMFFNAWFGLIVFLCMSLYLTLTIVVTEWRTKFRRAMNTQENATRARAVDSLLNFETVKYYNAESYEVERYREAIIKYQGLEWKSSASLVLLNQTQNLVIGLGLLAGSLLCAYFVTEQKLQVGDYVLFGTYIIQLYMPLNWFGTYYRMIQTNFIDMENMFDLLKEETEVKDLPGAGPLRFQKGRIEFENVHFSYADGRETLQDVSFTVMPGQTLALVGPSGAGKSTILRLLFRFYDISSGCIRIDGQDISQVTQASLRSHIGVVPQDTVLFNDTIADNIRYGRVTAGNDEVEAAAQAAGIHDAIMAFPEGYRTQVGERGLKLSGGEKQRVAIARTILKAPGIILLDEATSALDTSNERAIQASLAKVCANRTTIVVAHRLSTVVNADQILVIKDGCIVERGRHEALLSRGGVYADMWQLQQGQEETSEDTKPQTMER
# Chain of Beta Lactamase (Q932Y6 whole entry): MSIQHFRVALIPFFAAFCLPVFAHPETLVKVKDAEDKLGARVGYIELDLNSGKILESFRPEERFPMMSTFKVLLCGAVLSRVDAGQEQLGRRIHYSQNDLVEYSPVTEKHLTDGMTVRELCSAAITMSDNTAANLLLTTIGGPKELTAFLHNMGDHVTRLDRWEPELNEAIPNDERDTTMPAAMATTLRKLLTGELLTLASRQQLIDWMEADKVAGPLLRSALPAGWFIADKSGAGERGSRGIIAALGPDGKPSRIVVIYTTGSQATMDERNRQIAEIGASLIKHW
smiles,measurement,setting,value
COc1ccc(CCNC(=O)COC(=O)C2CC2C)cc1OC (stereo not drawn),EC50,Insulin-degrading enzyme [1],> 54.7 µM (inactive)
same,EC50,HEK293 [2],> 55.9 µM (inactive)
same,EC50,Insulin-degrading enzyme [3],> 54.7 µM (inactive)
same,IC50,HEK293 [4],> 89.2 µM (inactive)
O=C(Nc1ccc2sc3ccccc3c(=O)c2c1)c1ccccc1Cl,IC50,CHO-K1,> 66.2 µM (inactive)
same,IC50,Orexin receptor type 2 [5],1.54 µM (active)
same,IC50,[6],> 5.53 µM (active)
same,IC50,[7],3.26 µM (active)
same,EC50,[8],0.232 µM (active)
same,IC50,Orexin receptor type 2 [9],> 88.8 µM (inactive)
same,EC50,[10],0.454 µM (active)
same,EC50,H4,0.199 µM (active)
same,IC50,[11],> 49.8 µM (inactive)
same,EC50,[12],0.297 µM (active)
same,EC50,[13],0.3 µM (active)
O=C(c1ccc(CNc2c(N3CCOCC3)c(=O)c2=O)cc1)N1CCC(c2ccccc2)CC1,CC50,[14],> 100 µM (active)
Cc1ccc(NC(=O)c2nc(S(=O)(=O)Cc3ccccc3)ncc2Cl)cc1,EC50,[15],34.7 µM (active)
same,AC50,[16],23 µM (active)
same,IC50,[17],3.58 µM (active)
same,IC50,CHO,3.31 µM (active)
same,AC50,[18],6.01 µM (active)
same,AC50,[19],3.42 µM (active)
same,AC50,[20],24.6 µM (active)
same,EC50,Protein RecA,0.88 µM (active)
same,AC50,[21],3.21 µM (active)
same,IC50,Beta Lactamase,8.3 µM (active)
same,AC50,[22],2.57 µM (active)
same,AC50,INS1,9.27 µM (active)
